pIC50: −log10 of the molar value.

Experimental findings from patent US20240025883A1, “PYRIMIDIN-2-YL SULFONAMIDE DERIVATIVES” (Hoffmann-La Roche Inc., priority 2021, published 2024) are described below.

The target in the test is human GPR17 short isoform (Homo sapiens (Human), UniProt Q13304). The experiment in a line: GPR17 cAMP assay (hGPR17 cAMP, antagonist mode against EC80 of MDL29,951). The test is classed as cell-based. As to conditions: CHO-K1 cells stably expressing human GPR17 short isoform; EC80 of agonist MDL29,951; forskolin 15 μM. An outline of the steps: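 CHO-K1 cells stably expressing untagged human GPR17 short isoform, 10,000/well in HBSS/10 mM HEPES/0.1% BSA pH 7.4. Compounds added with EC80 MDL29,951 and 0.5 mM IBMX, then 15 μM forskolin 5 min later, 30 min at room temperature; cAMP by TR-FRET, normalized to reference antagonist, sigmoidal fit.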
Sequence of human GPR17 short isoform (Q13304 29-367): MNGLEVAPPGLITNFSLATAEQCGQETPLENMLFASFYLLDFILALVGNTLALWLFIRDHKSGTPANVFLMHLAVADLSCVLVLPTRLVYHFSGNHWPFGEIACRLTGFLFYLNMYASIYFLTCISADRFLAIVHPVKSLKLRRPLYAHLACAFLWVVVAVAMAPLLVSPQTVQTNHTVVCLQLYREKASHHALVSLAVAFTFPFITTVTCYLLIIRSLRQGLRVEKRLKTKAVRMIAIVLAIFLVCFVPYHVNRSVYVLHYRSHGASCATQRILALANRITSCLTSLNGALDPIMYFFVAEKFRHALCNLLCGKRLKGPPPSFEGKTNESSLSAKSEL

In the case of `COc1nc(NS(=O)(=O)c2c[nH]c3c(Br)c(Cl)ccc23)ncc1CC(F)F` [Example 142, 7-bromo-6-chloro-N-[5-(2,2-difluoroethyl)-4-methoxy-pyrimidin-2-yl]-1H-indole-3-sulfonamide], the pIC50 is 7.54.

For `COc1nc(NS(=O)(=O)c2c[nH]c3cc(Br)ccc23)ncc1OCC(F)F` [Example 143, 6-bromo-N-[5-(2,2-difluoroethoxy)-4-methoxy-pyrimidin-2-yl]-1H-indole-3-sulfonamide], the negative-log IC50 (pIC50) was 6.96.

On to `COc1nc(NS(=O)(=O)c2csc3nc(Br)ccc23)nc(OC)c1C` [Example 144, 6-bromo-N-(4,6-dimethoxy-5-methyl-pyrimidin-2-yl)thieno[2,3-b]pyridine-3-sulfonamide], for which the pIC50 was 7.30. This pIC50 lies 0.34 log units higher than the previous one.

In turn, `COc1nc(NS(=O)(=O)c2csc3nc(Br)ccc23)ncc1OCC(F)F` [Example 145, 6-bromo-N-[5-(2,2-difluoroethoxy)-4-methoxy-pyrimidin-2-yl]thieno[2,3-b]pyridine-3-sulfonamide] gave a pIC50 of 6.82. This pIC50 is 0.48 log units lower than that of the molecule before.

Regarding `COc1nc(NS(=O)(=O)c2csc3nc(Br)ccc23)ncc1OCCF` [Example 146, 6-bromo-N-[5-(2-fluoroethoxy)-4-methoxy-pyrimidin-2-yl]thieno[2,3-b]pyridine-3-sulfonamide], the pIC50 was 7.05.

Regarding `COc1nc(NS(=O)(=O)c2csc3nc(Br)ccc23)ncc1OC(F)(F)CF` [Example 147, 6-bromo-N-[4-methoxy-5-(1,1,2-trifluoroethoxy)pyrimidin-2-yl]thieno[2,3-b]pyridine-3-sulfonamide], the pIC50 was 6.98.

Turning to `COc1nc(NS(=O)(=O)c2csc3nc(Br)ccc23)ncc1CC(F)F` [Example 148, 6-bromo-N-[5-(2,2-difluoroethyl)-4-methoxy-pyrimidin-2-yl]thieno[2,3-b]pyridine-3-sulfonamide], the pIC50 was 7.31.

The molecule `COc1nc(NS(=O)(=O)c2csc3nc(Br)ccc23)ncc1CCC#N` [Example 149, 6-bromo-N-[5-(2-cyanoethyl)-4-methoxy-pyrimidin-2-yl]thieno[2,3-b]pyridine-3-sulfonamide] showed a pIC50 of 6.83. Compared with the last molecule, the pIC50 is 0.48 log units lower.

As to `COc1nc(NS(=O)(=O)c2csc3nc(Br)ccc23)nc(OC)c1CC(F)F` [Example 150, 6-bromo-N-[5-(2,2-difluoroethyl)-4,6-dimethoxy-pyrimidin-2-yl]thieno[2,3-b]pyridine-3-sulfonamide], the negative logarithm of the IC50 (pIC50) is 7.41. Compared with the last molecule, the pIC50 is 0.58 log units higher.

`COc1nc(NS(=O)(=O)c2csc3nc(Br)ccc23)nc(OC)c1CCC#N` [Example 151, 6-bromo-N-[5-(2-cyanoethyl)-4,6-dimethoxy-pyrimidin-2-yl]thieno[2,3-b]pyridine-3-sulfonamide] showed a negative logarithm of the IC50 (pIC50) of 7.54.

As to `CCc1ccc2c(S(=O)(=O)Nc3ncc(CC(F)F)c(OC)n3)c[nH]c2c1` [Example 152, N-[5-(2,2-difluoroethyl)-4-methoxy-pyrimidin-2-yl]-6-ethyl-1H-indole-3-sulfonamide], the pIC50 is 6.98.

The molecule `CCCc1ccc2c(S(=O)(=O)Nc3ncc(CC(F)F)c(OC)n3)c[nH]c2c1` [Example 153, N-[5-(2,2-difluoroethyl)-4-methoxypyrimidin-2-yl]-6-propyl-1H-indole-3-sulfonamide] showed a negative-log IC50 (pIC50) of 6.45.

As to `COc1nc(NS(=O)(=O)c2csc3cc(Cl)ccc23)ncc1CC(F)F` [Example 154, 6-chloro-N-[5-(2,2-difluoroethyl)-4-methoxy-pyrimidin-2-yl]benzothiophene-3-sulfonamide], the pIC50 is 7.35.

The molecule `COc1nc(NS(=O)(=O)c2csc3cc(Cl)ccc23)ncc1CCC(F)F` [Example 155, 6-chloro-N-[5-(3,3-difluoropropyl)-4-methoxy-pyrimidin-2-yl]benzothiophene-3-sulfonamide] gave a pIC50 of 6.94.

Molecule `COc1nc(NS(=O)(=O)c2csc3cc(Cl)ccc23)ncc1CCC#N` [Example 156, 6-chloro-N-[5-(2-cyanoethyl)-4-methoxy-pyrimidin-2-yl]benzothiophene-3-sulfonamide] showed a pIC50 of 7.04. This pIC50 and that of the molecule before are within 0.2 log units of each other.

As for `COc1nc(NS(=O)(=O)c2csc3cc(Br)ccc23)ncc1OCC(F)F` [Example 157, 6-bromo-N-[5-(2,2-difluoroethoxy)-4-methoxy-pyrimidin-2-yl]benzothiophene-3-sulfonamide], the pIC50 is 6.75. This pIC50 lies 0.29 log units lower than the previous one.

The molecule `COc1nc(NS(=O)(=O)c2csc3cc(Br)ccc23)ncc1OCCF` [Example 158, 6-bromo-N-[5-(2-fluoroethoxy)-4-methoxy-pyrimidin-2-yl]benzothiophene-3-sulfonamide] gave a pIC50 of 7.33.

Molecule `COc1nc(NS(=O)(=O)c2csc3cc(C)ccc23)ncc1OCCF` [Example 159, N-[5-(2-fluoroethoxy)-4-methoxy-pyrimidin-2-yl]-6-methyl-benzothiophene-3-sulfonamide] gave a pIC50 of 6.66. This pIC50 lies 0.67 log units lower than the previous one.

Turning to `COc1nc(NS(=O)(=O)c2c[nH]c3nc(Br)ccc23)nc(OC)c1C` [Example 160, 6-bromo-N-(4,6-dimethoxy-5-methyl-pyrimidin-2-yl)-1H-pyrrolo[2,3-b]pyridine-3-sulfonamide], the pIC50 is 7.96.

Take `COc1nc(NS(=O)(=O)c2c[nH]c3nc(Br)ccc23)ncc1OCC(F)F` [Example 161, 6-bromo-N-[5-(2,2-difluoroethoxy)-4-methoxy-pyrimidin-2-yl]-1H-pyrrolo[2,3-b]pyridine-3-sulfonamide]: the pIC50 is 7.14.

As for `COc1nc(NS(=O)(=O)c2csc3c(F)c(Cl)ccc23)ncc1CC(F)F` [Example 162, 6-chloro-N-[5-(2,2-difluoroethyl)-4-methoxy-pyrimidin-2-yl]-7-fluoro-benzothiophene-3-sulfonamide], the negative-log IC50 (pIC50) is 6.61.

Consider `COc1nc(NS(=O)(=O)c2csc3c(F)c(Cl)ccc23)ncc1CCC#N` [Example 163, 6-chloro-N-[5-(2-cyanoethyl)-4-methoxy-pyrimidin-2-yl]-7-fluoro-benzothiophene-3-sulfonamide], for which the pIC50 is 6.67.

The molecule `COc1nc(NS(=O)(=O)c2c[nH]c3c(F)c(F)ccc23)ncc1CC(F)F` [Example 164, N-[5-(2,2-difluoroethyl)-4-methoxy-pyrimidin-2-yl]-6,7-difluoro-1H-indole-3-sulfonamide] gave a pIC50 of 6.90. This pIC50 lies 0.23 log units higher than the previous one.

Regarding `COc1nc(NS(=O)(=O)c2csc3nc(C(F)F)ccc23)ncc1OCCF` [Example 165, 6-(difluoromethyl)-N-[5-(2-fluoroethoxy)-4-methoxy-pyrimidin-2-yl]thieno[2,3-b]pyridine-3-sulfonamide], the pIC50 was 5.96.

In the case of `COc1nc(NS(=O)(=O)c2csc3nc(C(F)F)ccc23)ncc1CC(F)F` [Example 166, N-[5-(2,2-difluoroethyl)-4-methoxy-pyrimidin-2-yl]-6-(difluoromethyl)thieno[2,3-b]pyridine-3-sulfonamide], the pIC50 is 5.94. This pIC50 and that of the molecule before are within 0.2 log units of each other.

For `COc1nc(NS(=O)(=O)c2csc3nc(C(F)F)ccc23)nc(OC)c1CC(F)F` [Example 167, N-[5-(2,2-difluoroethyl)-4,6-dimethoxy-pyrimidin-2-yl]-6-(difluoromethyl)thieno[2,3-b]pyridine-3-sulfonamide], the pIC50 was 6.59.

Turning to `COc1nc(NS(=O)(=O)c2c[nH]c3c2ccc2cccnc23)nc(OC)c1OCC(F)F` [Example 168, N-[5-(2,2-difluoroethoxy)-4,6-dimethoxy-pyrimidin-2-yl]-1H-pyrrolo[3,2-h]quinoline-3-sulfonamide], the pIC50 was 7.59.
